The target in the experiment is T1, human recombinant P2X7 receptors (Homo sapiens, UniProt Q99572).
T1 construct: expressed in transfected cells
T1 sequence (Q99572 1-595): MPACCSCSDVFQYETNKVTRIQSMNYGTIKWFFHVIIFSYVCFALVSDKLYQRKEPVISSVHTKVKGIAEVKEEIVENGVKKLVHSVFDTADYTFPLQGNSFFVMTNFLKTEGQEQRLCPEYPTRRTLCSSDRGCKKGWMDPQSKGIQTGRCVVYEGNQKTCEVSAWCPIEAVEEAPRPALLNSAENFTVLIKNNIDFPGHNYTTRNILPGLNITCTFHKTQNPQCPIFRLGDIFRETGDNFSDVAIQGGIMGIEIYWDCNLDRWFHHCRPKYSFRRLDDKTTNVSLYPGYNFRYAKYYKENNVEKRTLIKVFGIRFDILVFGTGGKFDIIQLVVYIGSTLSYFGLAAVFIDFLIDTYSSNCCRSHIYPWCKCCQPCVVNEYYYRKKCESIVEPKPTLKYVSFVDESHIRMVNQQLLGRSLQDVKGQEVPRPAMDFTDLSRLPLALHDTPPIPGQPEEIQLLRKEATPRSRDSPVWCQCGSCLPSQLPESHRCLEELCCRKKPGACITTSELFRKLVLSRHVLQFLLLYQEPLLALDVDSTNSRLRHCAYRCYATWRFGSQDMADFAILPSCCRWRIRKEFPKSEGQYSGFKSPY
Put plainly: Ethidium Accumulation Assay 1 (HEK293 cells, ATP-induced ethidium uptake). To be noted: HEK293 cells expressing human P2X7; 1 mM ATP; sometimes mean of more than one measurement; read-out: Assay 1 (antagonist pIC50 for blocking ATP responses) (converted). The class given is cell-based. The protocol: Eithidium Accumulation Assay 1
Studies were performed using NaCl assay buffer of the following composition: 140 mM NaCl, 10 mM HEPES [4-(2-hydroxyethyl)-1-piperazine-1-ethanesulfonic acid], 5 mM N-methyl-D-glucamine, 5.6 mM KCl, 10 mM D-glucose, 0.5 mM CaCl2 (pH 7.4).
Human Embryonic Kidney (HEK) 293 cells, stably expressing human recombinant P2X7 receptors, were grown in poly-D-lysine pretreated 96 well plates for 18-24 hours.
The cells were washed twice with 350 μl of the assay buffer, before addition of 50 μl of the assay buffer containing the putative P2X7 receptor antagonist compound. (A small amount of dimethyl sulfoxide, for initially dissolving the compound, is optionally used and present in this 50 μl test compound sample.) The cells were then incubated at room temperature (19-21° C.) for 30 min before addition of ATP and ethidium (100 μM final assay concentration). The ATP concentration was chosen to be close to the EC80 for the receptor type and was 1 mM for studies on the human P2X7 receptor. Incubations were continued for 8 or 16 min and were terminated by addition of 25 μl of 1.3M sucrose containing 4 mM of the P2X7 receptor antagonist Reactive Black 5 (Aldrich). […] Antagonist pIC50 values for blocking ATP responses were determined using iterative curve fitting techniques.

We go through 26 compounds from US8501946B2 (Glaxo Group Limited, priority 2009, dated 2013).

As for `O=C(c1cccc(Cl)c1Cl)N1CCn2c(nnc2-c2cccnc2)C1` [Example 61, 7-[(2,3-dichlorophenyl)carbonyl]-3-(3-pyridinyl)-5,6,7,8-tetrahydro[1,2,4]triazolo [4,3-a]pyrazine], the IC50 was less than 10 nM.

For `Cn1nccc1-c1nnc2n1CCN(C(=O)c1cccc(Cl)c1Cl)C2` [Example 81, 7-[(2,3-dichlorophenyl)carbonyl]-3-(1-methyl-1H-pyrazol-5-yl)-5,6,7,8-tetrahydro[1,2,4]triazolo [4,3-]pyrazine], the IC50 is less than 100 nM. For the compound `O=C(c1cccc(C(F)(F)F)c1Cl)N1CCn2c(nnc2N2CCOCC2)C1` [Example 18, 7-{[2-Chloro-3-(trifluoromethyl)phenyl]carbonyl}-3-(4-morpholinyl)-5,6,7,8-tetrahydro[1,2,4]triazolo[4,3-a]pyrazine], the IC50 is less than 501 nM. The figure for `O=C(c1cccc(Cl)c1Cl)N1CCn2c(nnc2-c2ccc(F)cn2)C1` [Example 54, 7-[(2,3-dichlorophenyl)carbonyl]-3-(5-fluoro-2-pyridinyl)-5,6,7,8-tetrahydro[1,2,4]triazolo [4,3-a]pyrazine] is less than 10 nM; for `O=C(c1ccc(F)cc1Cl)N1CCn2c(nnc2-c2cscn2)C1` [Example 90, 7-[(2-chloro-4-fluorophenyl)carbonyl]-3-(1,3-thiazol-4-yl)-5,6,7,8-tetrahydro[1,2,4]triazolo [4,3-a]pyrazine] it is less than 10 nM.

As to `O=C(c1ccc(F)cc1Cl)N1CCn2c(Br)nnc2C1` [Example 109, 3-Bromo-7-[(2-chloro-4-fluorophenyl)carbonyl]-5,6,7,8-tetrahydro[1,2,4]triazolo[4,3-a]pyrazine], the IC50 was less than 501 nM.

With `O=C(c1ccc(F)cc1Cl)N1CCn2c(nnc2-c2ccccn2)C1` [Example 37, 7-[(2-chloro-4-fluorophenyl)carbonyl]-3-(2-pyridinyl)-5,6,7,8-tetrahydro[1,2,4]triazolo [4,3-a]pyrazine], the IC50 was less than 10 nM. Regarding `O=C(c1cccc(C(F)(F)F)c1Cl)N1CCn2c(nnc2-c2ccc(F)cc2F)C1` [Example 24, 7-{[2-Chloro-3-(trifluoromethyl)phenyl]carbonyl}-3-(2,4-difluorophenyl)-5,6,7,8-tetrahydro[1,2,4]triazolo[4,3-a]pyrazine], the IC50 was less than 100 nM.

With `O=C(c1cccc(C(F)(F)F)c1Cl)N1CCn2c(nnc2C2CCCCC2)C1` [Example 135, 7-{[2-chloro-3-(trifluoromethyl)phenyl]carbonyl}-3-cyclohexyl-5,6,7,8-tetrahydro[1,2,4]triazolo[4,3-a]pyrazine], the IC50 was less than 100 nM.

As for `O=C(c1cccc(Cl)c1Cl)N1CCn2c(nnc2-c2ccc(F)cc2)C1` [Example 99, 7-[(2,3-dichlorophenyl)carbonyl]-3-(4-fluorophenyl)-5,6,7,8-tetrahydro[1,2,4]triazolo [4,3-a]pyrazine], the IC50 was less than 10 nM. Consider `O=C(c1cccc(C(F)(F)F)c1Cl)N1CCn2c(nnc2-c2ncc(F)cc2F)C1` [Example 83, 7-{[2-chloro-3-(trifluoromethyl)phenyl]carbonyl}-3-(3,5-difluoro-2-pyridinyl)-5,6,7,8-tetrahydro[1,2,4]triazolo [4,3-a]pyrazine], for which the IC50 is less than 10 nM. Turning to `O=C(c1ccc(Cl)cc1Cl)N1CCn2c(nnc2-c2ccc(F)cn2)C1` [Example 95, 7-[(2,4-dichlorophenyl)carbonyl]-3-(5-fluoro-2-pyridinyl)-5,6,7,8-tetrahydro[1,2,4]triazolo [4,3-a]pyrazine], the IC50 was less than 100 nM. In the case of `O=C(c1cccc(C(F)(F)F)c1F)N1CCn2c(Br)nnc2C1` [Example 9, 3-bromo-7-{[2-fluoro-3-(trifluoromethyl)phenyl]carbonyl}-5,6,7,8-tetrahydro[1,2,4]triazolo [4,3-a]pyrazine], the IC50 is less than 100 nM. Consider `Cc1cc(F)ccc1C(=O)N1CCn2c(nnc2-c2cnccn2)C1` [Example 107, 7-[(4-fluoro-2-methylphenyl)carbonyl]-3-(2-pyrazinyl)-5,6,7,8-tetrahydro[1,2,4]triazolo [4,3-a]pyrazine], for which the IC50 is less than 100 nM. The figure for `O=C(c1ccc(Cl)cc1F)N1CCn2c(nnc2-c2ccccn2)C1` [Example 96, 7-[(4-chloro-2-fluorophenyl)carbonyl]-3-(2-pyridinyl)-5,6,7,8-tetrahydro[1,2,4]triazolo [4,3-a]pyrazine] is less than 100 nM; for `O=C(c1ccc(F)cc1Cl)N1CCn2c(nnc2-c2ncccc2F)C1` [Example 31, 7-[(2-chloro-4-fluorophenyl)carbonyl]-3-(3-fluoro-2-pyridinyl)-5,6,7,8-tetrahydro[1,2,4]triazolo [4,3-a]pyrazine] it is less than 10 nM. Consider `COCCc1nnc2n1CCN(C(=O)c1cccc(C(F)(F)F)c1Cl)C2` [Example 137, 7-{[2-chloro-3-(trifluoromethyl)phenyl]carbonyl}-3-[2-(methyloxy)ethyl]-5,6,7,8-tetrahydro[1,2,4]triazolo[4,3-a]pyrazine], for which the IC50 was less than 100 nM. To `CC(C)(C)c1nnc2n1CCN(C(=O)c1cccc(C(F)(F)F)c1Cl)C2` [Example 25, 7-{[2-chloro-3-(trifluoromethyl)phenyl]carbonyl}-3-(1,1-dimethylethyl)-5,6,7,8-tetrahydro[1,2,4]triazolo [4,3-a]pyrazine] belongs less than 501 nM; to `O=C(c1ccc(Cl)cc1Cl)N1CCn2c(nnc2-c2ncccc2F)C1` [Example 93], less than 100 nM. Take `O=C(c1ccc(F)cc1Cl)N1CCn2c(nnc2-c2cccc(Cl)c2Cl)C1` [Example 130, 7-[(2-chloro-4-fluorophenyl)carbonyl]-3-(2,3-dichlorophenyl)-5,6,7,8-tetrahydro[1,2,4]triazolo[4,3-a]pyrazine]: the IC50 is less than 100 nM. In the case of `Cc1ccc(-c2nnc3n2CCN(C(=O)c2cccc(Cl)c2Cl)C3)nc1` [Example 60, 7-[(2,3-dichlorophenyl)carbonyl]-3-(5-methyl-2-pyridinyl)-5,6,7,8-tetrahydro[1,2,4]triazolo [4,3-a]pyrazine], the IC50 was less than 100 nM. The figure for `Cn1cccc1-c1nnc2n1CCN(C(=O)c1cccc(C(F)(F)F)c1Cl)C2` [Example 29, 7-{[2-chloro-3-(trifluoromethyl)phenyl]carbonyl}-3-(1-methyl-1H-pyrrol-2-yl)-5,6,7,8-tetrahydro[1,2,4]triazolo [4,3-a]pyrazine] is less than 10 nM; for `CN(C)c1nnc2n1CCN(C(=O)c1cccc(C(F)(F)F)c1Cl)C2` [Example 20, 7-{[2-chloro-3-(trifluoromethyl)phenyl]carbonyl}-N,N-dimethyl-5,6,7,8-tetrahydro[1,2,4]triazolo [4,3-a]pyrazine-3-amine] it is less than 100 nM.

`O=C(c1ccc(F)cc1Cl)N1CCn2c(nnc2-c2ccc(F)c(F)c2)C1` [Example 124, 7-[(2-chloro-4-fluorophenyl)carbonyl]-3-(3,4-difluorophenyl)-5,6,7,8-tetrahydro[1,2,4]triazolo[4,3-a]pyrazine]: the IC50 is less than 100 nM. Take `O=C(c1cccc(F)c1F)N1CCn2c(nnc2-c2ccccn2)C1` [Example 88, 7-[(2,3-difluorophenyl)carbonyl]-3-(2-pyridinyl)-5,6,7,8-tetrahydro[1,2,4]triazolo [4,3-a]pyrazine]: the IC50 is less than 100 nM.

Consider `O=C(c1ccc(Cl)cc1Cl)N1CCn2c(nnc2-c2cnccn2)C1` [Example 92, 7-[(2,4-dichlorophenyl)carbonyl]-3-(2-pyrazinyl)-5,6,7,8-tetrahydro[1,2,4]triazolo[4,3-a]pyrazine], for which the IC50 is less than 10 nM.
